# Structures can show the parent of a compound that is named as a salt.
# Experiments:
# [1] = test system: ADRB2 W158A; test: Arrestin activity assay; assay type: cell-based; settings: compound 10 μM; signal of test well divided by signal of buffer-only control wells
# Method: (§1) The cells were lysed and the complemented activity was measured using a chemiluminescent b-galactosidase substrate. The values of each well containing a test compound was divided by the signal obtained from the control wells that received only buffer.
# [2] = biological target: ADRB2 (Homo sapiens, UniProt P07550); test: cAMP activity assay (Gs ADRB2); assay type: cell-based; settings: compound 10 μM; signal of test well divided by signal of buffer-only control wells
# Method: as §1
# [3] = biological target: T1, ADRB2 W158A mutant (Homo sapiens, UniProt P07550, W158A); test: Trafficking assay: β-galactosidase enzyme fragment complementation, ADRB2 W158A-ProLink with endosome-localized EA; assay type: cell-based; settings: compound 10 μM; signal of test well divided by signal of buffer-only control wells
# T1 construct: expressed in transfected cells
# From the text: The ADRB2 is a G-protein coupled receptor containing seven transmembrane regions. It was been shown that mutation of W158 to alanine can cause retention of the protein in the endoplasmic reticulum. Contacting the receptor with small molecules that bind to ADRB2 results in enhanced movement of the protein to the plasma membrane and endosomal compartments.
# The first fusion protein used comprises the target peptide (ADRB2W158A-PK) and the first fragment of complementation assay. This construct includes the W158 to alanine mutation. The second fusion protein used comprises endosome localized protein and the second fragment of complementation assay.
# as §1
# [4] = biological target: T2, AVPR2 (Arginine vasopressin receptor 2) (Homo sapiens, UniProt P30518); test: Trafficking of AVPR2 target peptide by complementation; assay type: cell-based
# T2 construct: expressed in transfected cells
# From the text: (§2) In a model of retinitis, the rhodopsin GPCR was tagged with an ED, and its translocation was studied in response to addition of 9-cis retinol. […] Also, AVPR2 (Arginine vasopressin receptor 2), a GPCR for which antagonists are used therapeutically, was studied with SR49059, a small molecule vasopressin V1a receptor antagonist. […] More than 200 mutations in the AVPR2 gene have been identified in people with nephrogenic diabetes insipidus. Most of these mutations cause the vasopressin V2 receptor protein to be misfolded into an incorrect 3-dimensional shape. Thus the present assay finds particular applicability in identifying compounds that bind to the AVPR2 gene product in the case of a misfolding mutation which occurs in humans.
# [5] = biological target: KCNH2 (hERG) mutant, Kv11.1 potassium ion channel (Homo sapiens, UniProt Q12809, form not given); test: in vitro
# [6] = biological target: KCNH2 (hERG) mutant, Kv11.1 potassium ion channel (Homo sapiens, UniProt Q12809); settings: KCNH2 mutant-PK cells, overnight, FIG. 5 curve fit
# Method: A single-point mutation is introduced in KCNH2. The second fusion protein used comprises plasma membrane localized protein and the second fragment of complementation assay. The second fragment of complementation assay was localized to the plasma membrane by fusing it to PH domain of phospholipase C gamma.
# In this experiment, cells expressing the KCNH2 mutant fused to the first fragment of complementation assay (ProLink™ peptide) and the plasma membrane localized EA were treated with a variety of compounds that bind to the ion channel.
# Binding of ligand leads to stabilization (“rescue”) and transport of the protein to the membrane.—PLC(PH)-EA anchors to the membrane. […] The assay is run overnight.
# [7] = test system: rhodopsin GPCR; test: Translocation of ED-tagged rhodopsin GPCR by complementation (model of retinitis); assay type: cell-based
# From the text: as §2
# T2 sequence (P30518 whole entry): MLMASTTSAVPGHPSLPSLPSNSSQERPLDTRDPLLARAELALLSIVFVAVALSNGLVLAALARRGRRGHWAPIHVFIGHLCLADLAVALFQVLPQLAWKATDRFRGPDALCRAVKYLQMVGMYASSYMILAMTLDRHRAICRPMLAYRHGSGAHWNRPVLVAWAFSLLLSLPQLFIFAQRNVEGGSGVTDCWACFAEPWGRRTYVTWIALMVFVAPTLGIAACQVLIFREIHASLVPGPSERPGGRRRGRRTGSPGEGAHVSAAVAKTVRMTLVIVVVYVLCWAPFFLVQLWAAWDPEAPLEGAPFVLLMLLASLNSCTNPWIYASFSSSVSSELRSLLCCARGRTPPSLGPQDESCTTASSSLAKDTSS
smiles,measurement,setting,value
CC(C)(C)NC[C@H](O)COc1nsnc1N1CCOCC1.O=C(O)/C=C\C(=O)O [(S)-Timolol maleate],Arrestin W158A S/B,[1],0.9
COc1ccccc1N1CCN(CC(O)COc2cccc3ccccc23)CC1.Cl.Cl (stereo not drawn) [Naftopidil 2HCl],cAMP Gs ADRB2 S/B,[2],1.0
same,Trafficking 5-EA ADRB2 S/B,[3],6.8
same,Arrestin W158A S/B,[1],1.0
CCC(NC(C)C)C(O)c1ccc(O)c2[nH]c(=O)ccc12 (stereo not drawn) [Procaterol HCl],cAMP Gs ADRB2 S/B,[2],15.2
same,Trafficking 5-EA ADRB2 S/B,[3],78.2
same,Arrestin W158A S/B,[1],21.3
COc1ccc(S(=O)(=O)N2c3ccc(Cl)cc3[C@](O)(c3ccccc3Cl)[C@@H]2C(=O)N2CCC[C@H]2C(N)=O)cc1OC [SR49059],dose response of AVPR2 trafficking to compound (result in words),[4],dose response curve was obtained
O=C(CCCN1CCC(O)(c2ccc(Cl)cc2)CC1)c1ccc(F)cc1 [Haloperidol],EC50,[5],15.3 mM
same,BOTTOM,[6],7500
same,HILLSLOPE,[6],0.5120
same,LOGEC50,[6],−1.815
same,TOP,[6],537564
CC(C)(C)NCC(O)COc1cccc2[nH]c(C#N)cc12.CC(C)(C)NCC(O)COc1cccc2[nH]c(C#N)cc12.O=C(O)/C=C/C(=O)O (stereo not drawn) [(—)-Cyanopindolol hemifumarate],cAMP Gs ADRB2 S/B,[2],1.8
same,Trafficking 5-EA ADRB2 S/B,[3],17.1
same,Arrestin W158A S/B,[1],1.0
CC(C)NCC(O)COc1cccc2ccccc12 (stereo not drawn) [Propanolol HCl],Arrestin W158A S/B,[1],0.9
CC1=C(/C=C/C(C)=C\C=C\C(C)=C\CO)C(C)(C)CCC1 [9-cis retinol],translocation of ED-tagged rhodopsin in response to compound (result in words),[7],dose-response curve showed sensitive results
